Measurements reported in BindingDB's records for doi:10.1021/jm990135j (Taisho Pharmaceutical, 1999).
Where a name gives a salt, the structure may show the parent alone.

Target: Sigma non-opioid intracellular receptor 1 (Cavia porcellus) (UniProt Q60492)
Assay: In vitro binding affinity at Sigma opioid receptors on guinea pig brain membranes by [3H]-3-PPP displacement.

Sigma non-opioid intracellular receptor 1 (Cavia porcellus), sequence (Q60492 whole entry, looked up): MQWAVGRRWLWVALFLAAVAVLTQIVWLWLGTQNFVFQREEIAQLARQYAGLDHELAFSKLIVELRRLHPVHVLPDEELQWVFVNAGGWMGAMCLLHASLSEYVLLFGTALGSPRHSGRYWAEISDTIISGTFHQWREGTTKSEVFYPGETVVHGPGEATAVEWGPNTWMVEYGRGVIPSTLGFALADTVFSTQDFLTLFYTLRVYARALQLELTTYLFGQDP

SMILES | IC50 [µM]
CCCC(N)(CCC)Cc1ccc(OC)c(OCCc2ccccc2)c1 [1-(4-Methoxy-3-phenethyloxy-benzyl)-1-propyl-butylamine; compound with (E)-but-2-enedioic acid] | > 1
CCCCCC(Cc1ccc(OC)c(OCCc2ccccc2)c1)N(CCC)CCC (centres undefined) [[1-(4-Methoxy-3-phenethyloxy-benzyl)-hexyl]-dipropyl-amine; hydrochloride] | 0.03

Target: not listed separately
Assay: In vitro binding affinity at Sigma opioid receptors on guinea pig brain membranes by [3H]3-PPP displacement.

SMILES | IC50 [µM]
CCCCCCC(N)Cc1ccc(OC)c(OCCc2ccccc2)c1 (centres undefined) [1-(4-Methoxy-3-phenethyloxy-benzyl)-heptylamine] | 0.17
CCCCCC(N)Cc1ccc(OC)c(OCCc2ccccc2)c1 (centres undefined) [1-(4-Methoxy-3-phenethyloxy-benzyl)-hexylamine; hydrochloride] | 0.11
CCCCCCCCC(N)Cc1ccc(OC)c(OCCc2ccccc2)c1 (centres undefined) [1-(4-Methoxy-3-phenethyloxy-benzyl)-nonylamine] | > 1
CCCCCCCC(N)Cc1ccc(OC)c(OCCc2ccccc2)c1 (centres undefined) [1-(4-Methoxy-3-phenethyloxy-benzyl)-octylamine] | 0.42
CCCCC(N)Cc1ccc(OC)c(OCCc2ccccc2)c1 (centres undefined) [1-(4-Methoxy-3-phenethyloxy-benzyl)-pentylamine] | 0.16
CCC(N)Cc1ccc(OC)c(OCCc2ccccc2)c1 (centres undefined) [1-(4-Methoxy-3-phenethyloxy-benzyl)-propylamine; hydrochloride] | > 1
COc1ccc(CC(C)N)cc1OCCc1ccccc1 (centres undefined) [2-(4-Methoxy-3-phenethyloxy-phenyl)-1-methyl-ethylamine; hydrochloride] | > 1
CCCC(Cc1ccc(OC)c(OCCc2ccccc2)c1)N(CCC)CCC (centres undefined) [[1-(4-Methoxy-3-phenethyloxy-benzyl)-butyl]-dipropyl-amine] | 0.0095
CCCCCCC(Cc1ccc(OC)c(OCCc2ccccc2)c1)N(CCC)CCC (centres undefined) [[1-(4-Methoxy-3-phenethyloxy-benzyl)-heptyl]-dipropyl-amine] | 0.15
CCCCCCC(Cc1ccc(OC)c(OCCc2ccccc2)c1)NCCC (centres undefined) [[1-(4-Methoxy-3-phenethyloxy-benzyl)-heptyl]-propyl-amine] | 0.009
CCCCCC(Cc1ccc(OC)c(OCCc2ccccc2)c1)NCCC (centres undefined) [[1-(4-Methoxy-3-phenethyloxy-benzyl)-hexyl]-propyl-amine; hydrochloride] | 0.0015
CCCCCCCCC(Cc1ccc(OC)c(OCCc2ccccc2)c1)N(CCC)CCC (centres undefined) [[1-(4-Methoxy-3-phenethyloxy-benzyl)-nonyl]-dipropyl-amine] | > 1
CCCCCCCCC(Cc1ccc(OC)c(OCCc2ccccc2)c1)NCCC (centres undefined) [[1-(4-Methoxy-3-phenethyloxy-benzyl)-nonyl]-propyl-amine] | 0.17
CCCCCCCC(Cc1ccc(OC)c(OCCc2ccccc2)c1)N(CCC)CCC (centres undefined) [[1-(4-Methoxy-3-phenethyloxy-benzyl)-octyl]-dipropyl-amine] | 0.23
CCCCC(Cc1ccc(OC)c(OCCc2ccccc2)c1)N(CCC)CCC (centres undefined) [[1-(4-Methoxy-3-phenethyloxy-benzyl)-pentyl]-dipropyl-amine] | 0.029
CCCNC(CC)Cc1ccc(OC)c(OCCc2ccccc2)c1 (centres undefined) [[1-(4-Methoxy-3-phenethyloxy-benzyl)-propyl]-propyl-amine] | 0.008
CCCN(CCC)C(C)Cc1ccc(OC)c(OCCc2ccccc2)c1 (centres undefined) [[2-(4-Methoxy-3-phenethyloxy-phenyl)-1-methyl-ethyl]-dipropyl-amine] | 0.012
CCCNC(C)Cc1ccc(OC)c(OCCc2ccccc2)c1 (centres undefined) [[2-(4-Methoxy-3-phenethyloxy-phenyl)-1-methyl-ethyl]-propyl-amine; hydrochloride] | 0.01

Target: Sigma-2 receptor (guinea pig)
Assay: TIn vitro binding affinity at Sigma opioid receptor type 2 on guinea pig brain membranes by [3H]DTG displacement in the presence of […].

SMILES | IC50 [µM]
CCCC(Cc1ccc(OC)c(OCCc2ccccc2)c1)N(CCC)CCC (centres undefined) [[1-(4-Methoxy-3-phenethyloxy-benzyl)-butyl]-dipropyl-amine] | 0.42
CCCCCCC(Cc1ccc(OC)c(OCCc2ccccc2)c1)NCCC (centres undefined) [[1-(4-Methoxy-3-phenethyloxy-benzyl)-heptyl]-propyl-amine] | 0.23
CCCCCC(Cc1ccc(OC)c(OCCc2ccccc2)c1)NCCC (centres undefined) [[1-(4-Methoxy-3-phenethyloxy-benzyl)-hexyl]-propyl-amine; hydrochloride] | 0.11
CCCNC(CC)Cc1ccc(OC)c(OCCc2ccccc2)c1 (centres undefined) [[1-(4-Methoxy-3-phenethyloxy-benzyl)-propyl]-propyl-amine] | 0.33
